Measured values from patent US20170056380A1, “Systems, Methods, Techniques, and Compounds in Research and Treatment of Portal Hypertension and other Conditions” (priority 2014, published 2017).
Entries after “also recorded” stand apart in the source; their conditions may differ.

Assays:
[1] = tested on: Erk1/2; experiment: Erk phosphorylation by immunoblotting in sinusoidal endothelial cells; format: cell-based, rat; settings: 2 h
Procedure: Cell isolation and culture. Sinusoidal endothelial cells were isolated from male Sprague-Dawley rats (450-500 g) (Harlan, Indianapolis, Ind.). In brief, after in situ perfusion of the liver with 20 mg/100 mg pronase (Roche Molecular Biochemicals, Indianapolis, Ind.), followed by collagenase (Worthington Biochemical, Lakewood, N.J.), dispersed cell suspensions were removed from a layered discontinuous density gradient of 8.2 and 15.6% Accudenz (Accurate Chemical and Scientific, Westbury, N.Y.), further purified by centrifugal elutriation (18 ml/min flow), and were grown in medium containing 20% serum (10% horse/calf). The purity of endothelial cells was documented by their uptake of fluorescently labeled di-l-acetoacetylated low-density lipoprotein as described (21). […]
Immunoblotting, Immunoblotting was performed by using specified primary antibodies, including anti-eNOS antibody (1:1,000; BD Transduction Laboratories, San Jose, Calif.), anti-phospho-eNOS-Ser^1177 (1:1,000; BD Transduction Laboratories or Cell Signaling Technology), anti-phospho-Akt, anti-Akt (Cell Signaling Technology, Beverly, Mass.), and horseradish peroxidase-conjugated secondary antibody. Specific signals were visualized using enhanced chemiluminescence as per the manufacturer's instructions and were scanned and quantitated with standard software. […]

[2] = molecular target: T1, eNOS (Rattus norvegicus, UniProt Q62600); experiment: NOS activity assay (conversion of L-[3H]arginine to L-[3H]citrulline) in sinusoidal endothelial cell lysates; format: cell-based
T1 construct: endogenous in cells; host or cells: primary liver sinusoidal endothelial cells from male Sprague-Dawley rats (normal or bile-duct-ligated)
T1 sequence (Q62600 1-1202): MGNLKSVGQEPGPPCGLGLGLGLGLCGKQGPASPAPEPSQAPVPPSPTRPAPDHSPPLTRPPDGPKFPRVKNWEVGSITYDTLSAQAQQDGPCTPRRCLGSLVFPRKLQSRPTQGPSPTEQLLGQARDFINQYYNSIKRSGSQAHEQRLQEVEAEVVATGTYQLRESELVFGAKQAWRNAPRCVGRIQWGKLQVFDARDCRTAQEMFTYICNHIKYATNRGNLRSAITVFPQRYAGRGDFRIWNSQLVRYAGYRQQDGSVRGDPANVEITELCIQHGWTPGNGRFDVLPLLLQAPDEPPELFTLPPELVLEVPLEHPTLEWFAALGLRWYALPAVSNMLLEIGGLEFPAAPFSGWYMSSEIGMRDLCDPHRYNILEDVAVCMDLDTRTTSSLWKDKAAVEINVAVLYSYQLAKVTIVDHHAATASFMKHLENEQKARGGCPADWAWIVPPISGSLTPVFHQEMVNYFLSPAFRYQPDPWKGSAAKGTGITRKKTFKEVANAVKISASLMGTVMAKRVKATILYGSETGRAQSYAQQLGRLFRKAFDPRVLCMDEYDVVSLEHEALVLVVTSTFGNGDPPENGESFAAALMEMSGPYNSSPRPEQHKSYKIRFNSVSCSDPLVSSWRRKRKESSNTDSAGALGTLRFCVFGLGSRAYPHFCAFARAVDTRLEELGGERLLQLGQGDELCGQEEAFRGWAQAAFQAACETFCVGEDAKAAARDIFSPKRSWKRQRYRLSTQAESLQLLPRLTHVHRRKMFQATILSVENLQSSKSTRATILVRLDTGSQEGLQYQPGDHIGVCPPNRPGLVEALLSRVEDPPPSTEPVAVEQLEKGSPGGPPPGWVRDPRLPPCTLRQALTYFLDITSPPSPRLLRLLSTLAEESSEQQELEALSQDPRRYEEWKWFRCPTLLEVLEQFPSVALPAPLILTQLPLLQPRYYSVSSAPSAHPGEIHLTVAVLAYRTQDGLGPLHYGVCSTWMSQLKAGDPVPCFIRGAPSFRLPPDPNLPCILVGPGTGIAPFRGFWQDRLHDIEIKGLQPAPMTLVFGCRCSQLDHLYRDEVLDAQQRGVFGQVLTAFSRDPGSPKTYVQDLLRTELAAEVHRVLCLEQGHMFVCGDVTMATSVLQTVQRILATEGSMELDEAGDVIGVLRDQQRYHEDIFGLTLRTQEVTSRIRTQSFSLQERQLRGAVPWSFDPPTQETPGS
Procedure: Cell isolation and culture. Sinusoidal endothelial cells were isolated from male Sprague-Dawley rats (450-500 g) (Harlan, Indianapolis, Ind.). In brief, after in situ perfusion of the liver with 20 mg/100 mg pronase (Roche Molecular Biochemicals, Indianapolis, Ind.), followed by collagenase (Worthington Biochemical, Lakewood, N.J.), dispersed cell suspensions were removed from a layered discontinuous density gradient of 8.2 and 15.6% Accudenz (Accurate Chemical and Scientific, Westbury, N.Y.), further purified by centrifugal elutriation (18 ml/min flow), and were grown in medium containing 20% serum (10% horse/calf). The purity of endothelial cells was documented by their uptake of fluorescently labeled di-l-acetoacetylated low-density lipoprotein as described (21). Only primary sinusoidal endothelial isolates of >95% purity were used for study. Experiments were performed with cells frorrr a minimum three different isolations (for all experiments).
Animal model of liver injury and portal hypedension. Liver injury and portal hypertension were induced by performing bile duct ligation in 450- to 500-gram male retired breeder Sprague-Dawley rats as described in Liu and 20- to 25-gram male BALB/c mice. Briefly, bile duct ligation was performed by surgical isolation and ligation of the common bile duct. This model creates a portal-based fibrogenic response and portal hypertension 10-14 days after surgery (Liu). For study of injured sinusoidal endothelial cells, we used the rat model of bile duct ligation (10-14 days postsurgery); for in vivo study (primarily to conserve the use of active compound), we used the mouse model of bile duct ligation (examining portal pressure 4 wk postsurgery). In sham-operated rats or mice, laparotomy without isolation and section of the bile duct was performed. Studies were approved by the local Institutional Animal Care and Use Committees. Portal pressure measurement. Portal hypertension was induced in male BALB/c mice by bile duct ligation as above. Cicletanine (5 mg·kg^−1·day^−1) or vehicle was given by gavage as a single daily dose for 10 days before portal pressure measurement as described in Liue. In brief, mice were anesthetized, and an intravenous catheter (Becton Dickinson Vascular Access, Sandy, Utah) was introduced in the portal vein and secured with a silk tie. A calibrated low-pressure transducer (Digi-Med, Louisville, Ky.) was connected to the portal vein catheter, and portal pressure was recorded continuously using the Digi-Med Integrator 200 System (Digi-bled).
NOS activity assay. NOS activity from sinusoidal endothelial cell lysates was assessed by measuring the conversion of L-[3H]arginine to L-[3H]citrulline as described (6) per the manufacturer's instructions (Cayman Chemical). In brief, triplicate samples of cell lysates were incubated with a reaction buffer containing 3 pmol of L-[3H]arginine (45 Ci/mmol), 0-50 μM arginine, 1 mM NADPH, 100 nM calmodulin (CaM), 2 mM CaCl2, and 30 μM BH4 in a volume of 50-100 μl at room temperature for 30 min and at 37° C. for an additional 30 min in the presence and absence of 1 mM NG-nitro-L-arginine methyl ester (L-NAME). […] Radiolabeled counts per minute of generated L-citrulline were measured and used to determine L-NAME-inhibitable NOS activity (thus, each experiment included total counts and background counts). […] The reductase activities of sinusoidal endothelial cells with or without cicletanine exposure were determined using the NADPH-dependent cytochrome c assay. […]

Cc1ncc2c(c1O)COC2c1ccc(Cl)cc1 (stereo not drawn) [cicletanine, 3-(4-chlorophenyl)-1,3-dihydro-7-hydroxy-6-methylfuro-(3,4-c) pyridine]
phosphorylation of Erk ([1]; 50 or 100 nM, normal sinusoidal endothelial cells): increased in a dose-dependent manner; also recorded: robustly induced
Erk1/2 phosphorylation ([1]; sinusoidal endothelial cells injured by bile duct ligation): increased
increase in eNOS activity, 6 h compared with 2 h ([2]; cicletanine 100 nM): greater at 6 h
eNOS activity above basal level at 2 and 6 h after exposure ([2]; cicletanine 100 nM, cell lysates at 2 and 6 h): consistent increases
eNOS activity (conversion of arginine to citrulline) ([2]; cicletanine 100 nM, normal sinusoidal endothelial cells): robust eNOS activity
eNOS activity ([2]; sinusoidal endothelial cells injured by bile duct ligation, 2 h): increase
